Source: publication PMC8474119, “Discovery and SAR Evolution of Pyrazole Azabicyclo[3.2.1]octane Sulfonamides as a Novel Class of Non-Covalent N-Acylethanolamine-Hydrolyzing Acid Amidase (NAAA) Inhibitors for Oral Administration” (Journal of Medicinal Chemistry, 2021)

Molecular target: T1, h-NAAA (Homo sapiens, UniProt Q02083)
T1 construct: made in house; host or cells: HEK-293 cells stably overexpressing human NAAA; enzyme-enriched (lysosomal) lysate
T1 sequence (Q02083 29-125 limits assumed): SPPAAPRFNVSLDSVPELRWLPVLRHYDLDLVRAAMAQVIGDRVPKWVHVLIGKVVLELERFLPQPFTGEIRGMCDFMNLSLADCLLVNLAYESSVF
T1 sequence (Q02083 126-359 limits assumed): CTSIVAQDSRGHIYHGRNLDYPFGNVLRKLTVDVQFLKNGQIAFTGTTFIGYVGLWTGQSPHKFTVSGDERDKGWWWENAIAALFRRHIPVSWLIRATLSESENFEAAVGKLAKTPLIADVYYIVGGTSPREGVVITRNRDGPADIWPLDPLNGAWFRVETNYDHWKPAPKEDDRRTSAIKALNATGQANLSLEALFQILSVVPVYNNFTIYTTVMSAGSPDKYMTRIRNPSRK
Assay: Fluorogenic human-NAAA assay (h-NAAA, fluo.)
Assay type: biochemical
Conditions: h-NAAA (fluo.)
Protocol: Human recombinant proteins were obtained from HEK-293 stable overexpressing human NAAA, AC, and FAAH-1 cell lines, respectively. Cells were grown in Dulbecco’s modified Eagle medium (DMEM) containing 10% FBS, 1% glutamine, 1 mM sodium pyruvate, and 500 μg/mL geneticin (G418). To obtain a high-density cell proliferation, h-NAAA-HEK-293 cells were grown in BelloCell-500 bottle, a compact bioreactor. On the contrary, h-AC and h-FAAH-1-HEK-293 cells were grown in 150 mm dishes and scraped off with cold PBS 1× pH 7.4 at 80% confluence. Cell pellets were collected and stored at −80 °C until protein preparation.
HEK-293 cells stably transfected with the human NAAA or human AC coding sequences were used as the enzyme source. Cells were suspended in 20 mM Tris-HCl (pH 7.4) with 0.32 M sucrose, sonicated, and centrifuged at 800g for 30 min at 4 °C. Supernatants were then centrifuged at 12,000g for 30 min at 4 °C. Pellets were resuspended in PBS buffer (pH 7.4) and subjected to three freeze-thaw cycles at −80 °C. The suspension was finally centrifuged at 105,000g for 1 h at 4 °C, supernatants were collected, protein concentration was measured, and samples were aliquoted and stored at −80 °C until use.
The assay was run in 96-well microplates (Black OptiPlate-96 F; PerkinElmer, Massachusetts, USA), in a total reaction volume of 200 μL. h-NAAA protein preparation (4 μg) was preincubated for 30 min with various concentrations of test compounds or vehicle control (DMSO 5%) in 100 mM citrate/phosphate buffer (pH 4.5) containing 3.0 mM DTT, 0.1% NP40, 0.05% BSA, and 150 mM NaCl. The background (no activity) samples were prepared using assay buffer without h-NAAA and DMSO (5%). N-(4-methyl-2-oxo-chromen-7-yl)-hexadecanamide (PAMCA)[60] was used as a substrate (2 μM) and the reaction was carried out for 50 min at 37 °C. Fluorescence was measured with EnVision 2014 Multilabel Reader (PerkinElmer, Massachusetts, USA) using an excitation wavelength of 355 nm and an emission of 460 nm. IC50 values were calculated by non-linear regression analysis of log[concentration]/response curves generated with mean replicate values using a four-parameter Hill equation curve fitting with GraphPad Prism 5 (GraphPad Software Inc., CA, USA).

| SMILES | h-NAAA inhibitory activity, in words |
| --- | --- |
| Cc1n[nH]c(C)c1S(=O)(=O)N1[C@@H]2CC[C@H]1C[C@H](Oc1cnccn1)C2 [Compound 21, (1R,3s,5S)-8-((3,5-Dimethyl-1H-pyrazol-4-yl)sulfonyl)-3-(pyrazin-2-yloxy)-8-azabicyclo[3.2.1]octane] | devoid of any activity |
| Cc1noc(C)c1S(=O)(=O)N1CCC(Oc2cnccn2)CC1 [Compound 5, 3,5-Dimethyl-4-((4-(pyrazin-2-yloxy)piperidin-1-yl)sulfonyl)isoxazole] | complete loss of inhibitory effect |
| O=S(=O)(c1cn[nH]c1)N1CCC(Oc2cnccn2)CC1 [Compound 3, 2-((1-((1H-Pyrazol-4-yl)sulfonyl)piperidin-4-yl)oxy)pyrazine] | devoid of any activity |

The remaining lines, values ahead:

| h-NAAA inhibitory activity, in words | SMILES |
| --- | --- |
| inactive | Cc1n[nH]c(C)c1S(=O)(=O)N1C[C@H]2CCC[C@@H](C1)[C@H]2Oc1cnccn1 [Compound 28, (1R,5S,9r)-3-((3,5-Dimethyl-1H-pyrazol-4-yl)sulfonyl)-9-(pyrazin-2-yloxy)-3-azabicyclo[3.3.1]nonane] |
| complete loss of activity | Cc1n[nH]c(C)c1C(=O)N1CCC(Oc2cnccn2)CC1 [Compound 16, (3,5-Dimethyl-1H-pyrazol-4-yl)(4-(pyrazin-2-yloxy)piperidin-1-yl)methanone] |

Same assay, conditions: h-NAAA (fluo.), mean ± SD (n ≥ 3); n.a.: not active @50 μM (<10% inhibition)

| SMILES | IC50 [nM] |
| --- | --- |
| CCCCc1n[nH]c(C)c1S(=O)(=O)N1CCC(Oc2cnccn2)CC1 [Compound 10, 2-((1-((3-Butyl-5-methyl-1H-pyrazol-4-yl)sulfonyl)piperidin-4-yl)oxy)pyrazine] | 910 ± 130 |
| Cc1n[nH]c(C)c1S(=O)(=O)N(C)CCCOc1cnccn1 [Compound 19, N,3,5-Trimethyl-N-(3-(pyrazin-2-yloxy)propyl)-1H-pyrazole-4-Sulfonamide] | 4290 ± 970 |
| CCCCCCc1ccc(O[C@H]2C[C@H]3CC[C@@H](C2)N3S(=O)(=O)c2c(C)n[nH]c2C)cc1 [Compound 41, (1R,3r,5S)-8-((3,5-Dimethyl-1H-pyrazol-4-yl)sulfonyl)-3-(4-hexylphenoxy)-8-azabicyclo[3.2.1]octane] | 19 ± 1 |
| Cc1n[nH]c(C)c1S(=O)(=O)N1[C@@H]2CC[C@H]1C[C@H](Oc1ccccc1)C2 [Compound 32, (1R,3s,5S)-8-((3,5-Dimethyl-1H-pyrazol-4-yl)sulfonyl)-3-phenoxy-8-azabicyclo[3.2.1]octane] | 655 ± 45 |
| Cc1n[nH]c(C)c1S(=O)(=O)N1[C@@H]2CC[C@H]1C[C@@H](Oc1ccc(CCC(C)C)cc1)C2 [Compound 42, (1R,3r,5S)-8-((3,5-Dimethyl-1H-pyrazol-4-yl)sulfonyl)-3-(4-isopentylphenoxy)-8-azabicyclo[3.2.1]octane] | 114 ± 10 |
| Cc1ccc(O[C@@H]2C[C@H]3CC[C@@H](C2)N3S(=O)(=O)c2c(C)n[nH]c2C)cc1 [Compound 34, (1R,3s,5S)-8-((3,5-Dimethyl-1H-pyrazol-4-yl)sulfonyl)-3-(p-tolyloxy)-8-azabicyclo[3.2.1]octane] | 8710 ± 340 |
| Cc1n[nH]c(C)c1S(=O)(=O)N1[C@@H]2CC[C@H]1C[C@@H](Oc1ccc(C(C)C)cc1)C2 [Compound 38, (1R,3r,5S)-8-((3,5-Dimethyl-1H-pyrazol-4-yl)sulfonyl)-3-(4-isopropylphenoxy)-8-azabicyclo[3.2.1]octane] | 744 ± 90 |
| Cc1ccccc1O[C@H]1C[C@H]2CC[C@@H](C1)N2S(=O)(=O)c1c(C)n[nH]c1C [Compound 36, (1R,3r,5S)-8-((3,5-Dimethyl-1H-pyrazol-4-yl)sulfonyl)-3-(o-tolyloxy)-8-azabicyclo[3.2.1]octane] | 291 ± 10 |
| CCc1n[nH]c(C)c1S(=O)(=O)N1CCC(Oc2cnccn2)CC1 [Compound 8, 2-((1-((3-Ethyl-5-methyl-1H-pyrazol-4-yl)sulfonyl)piperidin-4-yl)oxy)pyrazine] | 620 ± 120 |
| Cc1n[nH]c(C)c1S(=O)(=O)N1[C@@H]2CC[C@H]1C[C@@H](Oc1ccccc1)C2 [Compound 31, (1R,3r,5S)-8-((3,5-Dimethyl-1H-pyrazol-4-yl)sulfonyl)-3-phenoxy-8-azabicyclo[3.2.1]octane] | 93 ± 20 |
| CCCc1n[nH]c(C)c1S(=O)(=O)N1CCC(Oc2cnccn2)CC1 [Compound 9, 2-((1-((5-Methyl-3-propyl-1H-pyrazol-4-yl)sulfonyl)piperidin-4-yl)oxy)pyrazine] | 330 ± 40 |
